# Reference: patent US8026244B2, “Thioxanthine derivatives and their use as inhibitors of MPO” (AstraZeneca AB, priority 2006, dated 2011)
# Biological target: T1, human MPO (Homo sapiens, UniProt P05164)
# T1 sequence (P05164 49-745): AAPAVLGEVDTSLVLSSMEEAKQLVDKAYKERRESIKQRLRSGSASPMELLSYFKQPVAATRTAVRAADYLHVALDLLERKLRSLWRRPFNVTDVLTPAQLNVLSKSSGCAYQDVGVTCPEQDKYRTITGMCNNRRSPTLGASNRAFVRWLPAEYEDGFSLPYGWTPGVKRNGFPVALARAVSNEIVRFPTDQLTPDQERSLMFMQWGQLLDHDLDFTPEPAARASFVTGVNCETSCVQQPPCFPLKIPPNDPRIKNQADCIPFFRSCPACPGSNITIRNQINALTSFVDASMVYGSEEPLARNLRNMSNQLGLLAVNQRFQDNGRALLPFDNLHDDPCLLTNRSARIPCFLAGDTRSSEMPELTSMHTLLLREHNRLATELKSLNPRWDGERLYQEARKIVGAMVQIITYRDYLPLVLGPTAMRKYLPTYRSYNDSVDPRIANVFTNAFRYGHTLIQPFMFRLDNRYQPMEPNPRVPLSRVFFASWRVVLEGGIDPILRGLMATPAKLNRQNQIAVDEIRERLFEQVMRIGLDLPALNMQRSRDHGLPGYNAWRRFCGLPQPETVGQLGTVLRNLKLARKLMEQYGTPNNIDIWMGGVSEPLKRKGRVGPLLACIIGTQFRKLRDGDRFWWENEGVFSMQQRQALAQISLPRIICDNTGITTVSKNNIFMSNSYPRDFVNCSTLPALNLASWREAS
# Assay: MPO inhibition screen (TMB oxidation, absorbance), compounds alone or with added tyrosine
# Assay type: biochemical
# Details: in the presence of tyrosine (final concentration 8 μM); human MPO 2.5 nM; H2O2 100 μM; pH 6.5
# Method: Methods for the determination of MPO inhibitory activity are disclosed in patent application WO 02/090575. The pharmacological activity of compounds according to the invention was tested in the following screen in which the compounds were either tested alone or in the presence of added tyrosine:
# Assay buffer: 20 mM sodium/potassium phosphate buffer pH 6.5 containing 10 mM taurine and 100 mM NaCl.
# Developing reagent: 2 mM 3,3′,5,5′-tetramethylbenzidine (TMB), 200 μM KI, 200 mM acetate buffer pH 5.4 with 20% DMF.
# To 10 μl of diluted compounds in assay buffer, 40 μl of human MPO (final concentration 2.5 nM), with or without 20 μM tyrosine (final concentration, if present, 8 μM), was added and the mixture was incubated for 10 minutes at ambient temperature. Then 50 μl of H2O2 (final concentration 100 μM), or assay buffer alone as a control, were added. After incubation for 10 minutes at ambient temperature, the reaction was stopped by adding 10 μl 0.2 mg/ml of catalase (final concentration 18 μg/ml). The reaction mixture was left for an additional 5 minutes before 100 μl of TMB developing reagent was added. The amount of oxidised 3,3′,5,5′-tetramethylbenzidine formed was then measured after about 5 minutes using absorbance spectroscopy at about […]. IC50 values were then determined using standard procedures.
row,Compound,IC50 [nM]
1,"O=c1[nH]c(=S)n(Cc2ccncc2)c2nc[nH]c12 [Example 3, 3-(pyridin-4-ylmethyl)-2-thioxo-1,2,3,7-tetrahydro-6H-purin-6-one]",100
2,"CC(Cn1c(=S)[nH]c(=O)c2[nH]cnc21)NCc1cccn1C (stereo not drawn) [Example 44, 3-(2-{[(1-methyl-1H-pyrrol-2-yl)methyl]amino}propyl)-2-thioxo-1,2,3,7-tetrahydro-6H-purin-6-one]",2200
3,"CC(c1nc2ccccc2[nH]1)n1c(=S)[nH]c(=O)c2[nH]cnc21 (stereo not drawn) [Example 9, 3-[1-(1H-benzimidazol-2-yl)ethyl]-2-thioxo-1,2,3,7-tetrahydro-6H-purin-6-one]",10000
